In patent US4925979A, “Flavone carboxylic acid derivatives” (Shionogi & Co., Ltd., priority 1986, dated 1990):
Where two headings read alike, the source gives them in different places.

How the values were obtained:
[1] = as seen from the therapeutic index; cited from earlier work
[2] = system: human acute promyelocytic leukemia cells HL 60; experiment: Differentiation of HL-60 cells: NBT reduction (counting formazan-containing cells), ED50; type: cell-based; settings: for activity (in words): HL-60 differentiation, Table 1; for EC50: Homo sapiens, read-out: ED50 (effective dose which causes differentiation of 50% of the cultured cells)
Method: The test of the activities of the compounds of this invention has been conducted by measuring the concentration required for inducing the differentiation of human acute promyelocytic leukemia cells HL 60, according to the methods described in detail hereinafter.
(§1) The HL-60 cell are cultured in plastic flasks in RPMI 1640 medium supplemented with 5% heat inactivated fetal calf serum and antibiotics (penicillin G and streptomycin). The cells (3×10^4 /ml) are cultured with a compound of the present invention for 4 days. The cells are fixed and stained with Wright-Giemsa to examine the morphological changes of the nuclei.
The biochemical activity of cells treated with the compound is measured as follows:
The cells after 5 days incubation are centrifuged and diluted with RPMI 1640 medium, supplemented with 5% fetal calf serum to provide a definite number of the cells. To the diluted cell suspension are then added 200 ng/ml of 12-o-tetradodecanoylphorbol-13 -acetate (TPA) and the resulting culture medium is then incubated for 20 minutes at 37° C. in the presence of 0.1% of NBT. Thus, the mature differentiated cells containing blue-black formazan is counted by microscopy, so that the ratio of the cells having the ability to reduce NBT, to total cells, can be calculated.
(§2) The biological test was performed according to the method previously described, using the leukemia cells HL 60. The morphological changes were observed under a light microscope. Biochemical activity reducing nitro-blue tetrazolium is assayed by counting the number of cells which contain formazan. The specific activity, ED50 (the concentration which causes the differentiation of 50% of the total cells, represented by M), was calculated and shown in the Table. As a positive control for comparison, all trans retinoic acid was used.

[3] = system: chemically-induced skin carcinomas in mice; settings: cited from earlier work
[4] = system: chemically-induced papillomas of the skin of mice; settings: minute quantities; cited from earlier work
[5] = system: human acute promyelocytic leukemia cells (HL-60); experiment: Differentiation of HL-60 cells: morphological changes of nuclei (Wright-Giemsa); type: cell-based; settings: HL-60, 4 days culture
Method: as §1, §2

For `CCOC(=O)c1ccc(/C=C(\C)c2ccc3c(c2)C(C)(C)CCC3(C)C)cc1` [Artinoid], which “activity relative to Retinoic acid” value [1] is on record?
The value was “ten times as strong”.

Which “activity (in words)” value [2] does the source give for `CC1(C)CCC(C)(C)c2cc3c(=O)cc(-c4ccc(C(=O)O)cc4)oc3cc21` [No. 5, 4-(6,7,8,9-tetrahydro-6,6,9,9,-tetramethyl-4H-4-oxo-naphtho[2,3-b]pyran-2-yl) benzoic acid] here?
Its value is “one of the strongest compounds”.

With `CC1(C)CCC(C)(C)c2cc(C(=O)C=C(O)c3ccc(C(=O)O)cc3)c(O)cc21` [No. 8, 4-[1-hydroxy-3-(3-hydroxy-5,6,7,8-tetrahydro-5,5,8,8-tetra-methyl-2-naphthalenyl)-3-oxo-1-propenyl] benzoic acid] as the compound, how does the “activity (in words)” value [2] read?
The value was “most active compound”.

With `CCOC(=O)c1ccc(/C=C(\C)c2ccc3c(c2)C(C)(C)CCC3(C)C)cc1` [Ro 13 6298] as the compound, how does the “therapeutic influence on skin carcinomas” value [3] read?
The value was “therapeutic influence”.

What about the regression of papillomas [4] of the same compound?
Its regression of papillomas is “regression”.

With `O=C(O)c1ccc(-c2cc(=O)c3ccccc3o2)cc1` [compound 1] as the compound, how does the “ED50 (effective dose which causes differentiation of 50% of the cultured cells)” value ([2]; HL-60 cells) read?
The value was “inactive (10^-5)”.

Which EC50 ([2]; 96 h, HL-60 cells) does the source give for `CC(C)(C)c1ccc2c(=O)cc(-c3ccc(C(=O)O)cc3)oc2c1` [compound 2] here?
The EC50 was 210 nM.

With `COC(=O)c1ccc(-c2cc(=O)c3cc4c(cc3o2)C(C)(C)CCC4(C)C)cc1` [compound 4] as the compound, how does the EC50 ([2]; 96 h, HL-60 cells) read?
The EC50 was 0.51 nM.

With `CC1(C)CCC(C)(C)c2cc3c(=O)cc(-c4ccc(C(=O)O)cc4)oc3cc21` [compound 5] as the compound, how does the EC50 ([2]; 96 h, HL-60 cells) read?
Its EC50 is 0.063 nM.

Which EC50 ([2]; 96 h, HL-60 cells) does the source give for `CC1(C)CCC(C)(C)c2cc3c(=O)c(O)c(-c4ccc(C(=O)O)cc4)oc3cc21` [compound 6] here?
The EC50 was 1.2 nM.

For `CC1(C)CCC(C)(C)c2cc(C(=O)C=Cc3ccc(C(=O)O)cc3)c(O)cc21` [compound 7], which EC50 ([2]; 96 h, HL-60 cells) is on record?
The EC50 was 0.1 nM.

With `CC1(C)CCC(C)(C)c2cc(C(=O)C=C(O)c3ccc(C(=O)O)cc3)c(O)cc21` [compound 8] as the compound, how does the EC50 ([2]; 96 h, HL-60 cells) read?
Its EC50 is 0.091 nM.

Which EC50 ([2]; 96 h, HL-60 cells) does the source give for `CC(C)(C)c1ccc(C(=O)C=C(O)c2ccc(C(=O)O)cc2)c(O)c1` [compound 9] here?
Its EC50 is 930 nM.

What does the source list for `CC1=C(/C=C/C(C)=C/C=C/C(C)=C/C(=O)O)C(C)(C)CCC1` [retinoic acid, all trans retinoic acid, reference compound]?
EC50 ([2]; HL-60, 96 h): 4.1 nM; differentiation to mature granulocytes [5]: differentiated to mature granulocytes
